# From US9611278B2 (Merck Sharp & Dohme Corp., priority 2013, dated 2017)
# Target: T1, sGC α1/β1 heterodimer stably expressed in CHO-K1 cells (CHO-K1/sGC) (Homo sapiens, UniProt Q02108+Q02153)
# T1 construct: expressed in transfected cells
# T1 sequence (Q02108 1-690): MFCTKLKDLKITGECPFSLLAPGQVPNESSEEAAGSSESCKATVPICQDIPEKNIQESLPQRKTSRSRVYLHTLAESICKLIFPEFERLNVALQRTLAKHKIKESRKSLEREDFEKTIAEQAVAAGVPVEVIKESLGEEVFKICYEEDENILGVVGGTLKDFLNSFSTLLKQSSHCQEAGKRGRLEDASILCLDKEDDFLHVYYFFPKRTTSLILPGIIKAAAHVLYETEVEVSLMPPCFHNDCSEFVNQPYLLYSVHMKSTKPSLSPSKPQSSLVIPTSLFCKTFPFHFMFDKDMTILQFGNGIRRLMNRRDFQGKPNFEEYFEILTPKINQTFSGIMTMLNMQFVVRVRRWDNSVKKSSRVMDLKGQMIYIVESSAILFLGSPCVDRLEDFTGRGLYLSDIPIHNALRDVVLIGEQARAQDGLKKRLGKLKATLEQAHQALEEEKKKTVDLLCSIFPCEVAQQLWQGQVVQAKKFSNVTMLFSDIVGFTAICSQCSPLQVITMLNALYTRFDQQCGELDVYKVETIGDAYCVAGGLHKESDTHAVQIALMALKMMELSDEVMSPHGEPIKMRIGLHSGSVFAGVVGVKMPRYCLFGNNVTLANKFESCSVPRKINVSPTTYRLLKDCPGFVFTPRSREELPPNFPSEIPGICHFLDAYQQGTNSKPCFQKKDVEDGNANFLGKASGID
# T1 sequence (Q02153 1-619): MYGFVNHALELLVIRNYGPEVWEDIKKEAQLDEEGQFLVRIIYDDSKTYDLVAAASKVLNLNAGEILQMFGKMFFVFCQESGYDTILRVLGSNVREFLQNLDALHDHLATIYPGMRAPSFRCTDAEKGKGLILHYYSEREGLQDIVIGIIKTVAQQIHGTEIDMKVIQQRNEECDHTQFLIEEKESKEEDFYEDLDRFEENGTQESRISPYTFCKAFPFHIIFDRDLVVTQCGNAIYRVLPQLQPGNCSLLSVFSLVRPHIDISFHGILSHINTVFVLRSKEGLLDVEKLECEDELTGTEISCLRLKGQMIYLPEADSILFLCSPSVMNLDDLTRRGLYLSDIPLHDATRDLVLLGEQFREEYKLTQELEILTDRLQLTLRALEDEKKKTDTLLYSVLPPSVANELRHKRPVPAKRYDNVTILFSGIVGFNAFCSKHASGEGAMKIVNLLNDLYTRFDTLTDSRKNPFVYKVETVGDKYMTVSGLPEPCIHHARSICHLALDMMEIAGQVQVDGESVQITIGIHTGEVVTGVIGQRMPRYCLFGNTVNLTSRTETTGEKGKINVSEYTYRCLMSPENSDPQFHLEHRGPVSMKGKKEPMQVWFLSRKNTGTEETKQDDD
# Experiment: Cell-based sGC Functional Assay (CASA Assay)
# Conditions: for Emax: CHO-K1, activation as percentage of maximum cGMP production of Compound A (set to 100%), read-out: % Act.; for EC50: inflection point of cGMP generation in CHO-K1/sGC cells, 4P fit, 1 hr at 37° C., read-out: IP
# From the text: sGC is a heme-containing enzyme that converts GTP to secondary messenger cGMP. Increases in cGMP levels affect several physiological processes including vasorelaxation through multiple downstream pathways. […] Heme-dependent activators (HDAs) preferentially activate sGC containing a ferrous heme group. To determine the effect of sGC activators on enzyme activity, the CASA assay was developed to monitor the generation of cGMP in a cell line that stably expresses the heterodimeric sGC protein.
# A CHO-K1 cell line stably expressing the sGC α1/β1 heterodimer was generated using a standard transfection protocol. CHO-K1 cells were transfected with plasmids pIREShyghsGCα1 and pIRESneo-hsGCβ1 simultaneously using FUGENE reagent. Clones that stably express both subunits were selected with hygromycin and neomycin for ˜2 weeks. Clone #7 was chosen for the assay and was designated CHO-K1/sGC. CHO-K1/sGC cells were maintained in F-K12 medium containing 10% heat-inactivated Fetal Bovine Serum (FBS), 100 μg/mL penicillin/streptomycin, 0.5 mg/mL hygromycin and 0.25 mg/mL G418. The cells were then cryopreserved in LN2. On the day of the assay, cells thawed and resuspended in EBSS Assay Buffer (EAB, Sigma, E3024) supplemented with 5 mM MgCl2, 10 mM HEPES (4-(2-hydroxyethyl)piperazine-1-ethanesulfonic acid) and 0.05% BSA (bovine serum albumin) and cell density was then adjusted to 4×10^5/mL with EAB. IBMX (3-isobutyl-1-methylxanthin, 0.5 mM) was added to inhibit degradation of cGMP. Compounds were diluted from DMSO stock solutions and added to the assay at a final DMSO concentration of 2.5%. Cells were incubated with compounds in the presence and absence of 1 μM of Diethylenetriamine/nitric oxide adduct (DETA-NO; Sigma, 17018) for 1 hr at 37° C. At the end of the incubation period, the reaction was terminated and the cells were lysed with the detection reagents from Cisbio Kits. The level of intracellular cGMP was determined using an HTRF-based assay kit (CisBio, 62GM2PEC), which detects the displacement of a fluorescence labeled cGMP from its specific antibody. The cGMP produced by test compounds was directly compared to the maximum cGMP production (this value was set to equal 100% activation.) of the published sGC-HDA Compound A:
# (Example 1 in WO 2010/065275, published Jun. 10, 2010). The test compounds' activity were then expressed as a percentage of Compound A, the standard in every experiment. This percent activation was calculated either in the presence or absence of DETA-NO which was then plotted. IP and maximum fold induction was derived using ADA analysis software for 4P fit.
SMILES,Emax,EC50
"Cn1ncc2c(-c3nc(N)c4c(n3)NC(=O)C4(c3cnoc3)C3CC3)nc(CCC(F)(F)C(F)(F)F)nc21 (stereo not shown) [Example 16, 4-Amino-5-cyclopropyl-5-(isoxazol-4-yl)-2-(1-methyl-6-(3,3,4,4,4-pentafluorobutyl)-1H-pyrazolo[3,4-d]pyrimidin-4-yl)-5,7-dihydro-6H-pyrrolo[2,3-d]pyrimidin-6-one]",107%,160 nM
"CCC1(c2ccc(OC)nc2)C(=O)Nc2nc(-c3nc(CCC(F)(F)C(F)(F)F)nc4c3cnn4C)nc(N)c21 (stereo not shown) [Example 17, 4-Amino-5-ethyl-5-(6-methoxypyridin-3-yl)-2-(1-methyl-6-(3,3,4,4,4-pentafluorobutyl)-1H-pyrazolo[3,4-d]pyrimidin-4-yl)-5,7-dihydro-6H-pyrrolo[2,3-d]pyrimidin-6-one]",116%,122 nM
"[2H]C([2H])([2H])n1ncc2c(-c3nc(N)c4c(n3)NC(=O)C4(C)c3ccnc(C(=O)OC)c3)nc(CCC(F)(F)C(F)(F)F)nc21 (stereo not shown) [Example 18, Methyl 4-(4-amino-5-methyl-2-(1-(methyl-d3)-6-(3,3,4,4,4-pentafluorobutyl)-1H-pyrazolo[3,4-d]pyrimidin-4-yl)-6-oxo-6,7-dihydro-5H-pyrrolo[2,3-d]pyrimidin-5-yl)picolinate]",88%,411 nM
"Cn1ncc2c(-c3nc(N)c4c(n3)NC(=O)C4(C)c3ccccn3)nc(CCCC(F)(F)F)nc21 (stereo not shown) [Example 21, 4-Amino-5-methyl-2-(1-methyl-6-(4,4,4-trifluorobutyl)-1H-pyrazolo[3,4-d]pyrimidin-4-yl)-5-(pyridin-2-yl)-5,7-dihydro-6H-pyrrolo[2,3-d]pyrimidin-6-one]",111%,138 nM
"Cn1ncc2c(-c3nc(N)c4c(n3)NC(=O)C4(C)c3ccccn3)nc(CCC(F)(F)C(F)(F)F)nc21 (stereo not shown) [Example 22, 4-Amino-5-methyl-2-(1-methyl-6-(3,3,4,4,4-pentafluorobutyl)-1H-pyrazolo[3,4-d]pyrimidin-4-yl)-5-(pyridin-2-yl)-5,7-dihydro-6H-pyrrolo[2,3-d]pyrimidin-6-one]",103%,71 nM
"CC(C)n1cc(C2(C3CC3)C(=O)Nc3nc(-c4nc(CCC(F)(F)C(F)(F)F)nc5c4cnn5C)nc(N)c32)cn1 (stereo not shown) [Example 26, 4-Amino-5-cyclopropyl-5-(1-isopropyl-1H-pyrazol-4-yl)-2-(1-methyl-6-(3,3,4,4,4-pentafluorobutyl)-1H-pyrazolo[3,4-d]pyrimidin-4-yl)-5,7-dihydro-6H-pyrrolo[2,3-d]pyrimidin-6-one]",72%,230 nM
"Cn1ncc2c(-c3nc(N)c4c(n3)NC(=O)C4(c3ncco3)C3CC3)nc(CCC(F)(F)C(F)(F)F)nc21 (stereo not shown) [Example 28, 4-Amino-5-cyclopropyl-2-(1-methyl-6-(3,3,4,4,4-pentafluorobutyl)-1H-pyrazolo[3,4-d]pyrimidin-4-yl)-5-(oxazol-2-yl)-5,7-dihydro-6H-pyrrolo[2,3-d]pyrimidin-6-one]",126%,891 nM

# Continued by falling EC50, values first:
Emax,EC50,SMILES
84%,885 nM,"[2H]C([2H])([2H])n1ncc2c(-c3nc(N)c4c(n3)NC(=O)C4(c3cnn(C)c3)C3CC3)nc(CCC(F)(F)C(F)(F)F)nc21 (stereo not shown) [Example 24, 4-Amino-5-cyclopropyl-5-(1-methyl-1H-pyrazol-4-yl)-2-(1-(methyl-d3)-6-(3,3,4,4,4-pentafluorobutyl)-1H-pyrazolo[3,4-d]pyrimidin-4-yl)-5,7-dihydro-6H-pyrrolo[2,3-d]pyrimidin-6-one]"
131%,709 nM,"[2H]C([2H])([2H])n1ncc2c(-c3nc(N)c4c(n3)NC(=O)C4(C)c3cncc(OC)c3)nc(CCC(F)(F)C(F)(F)F)nc21 (stereo not shown) [Example 14, 4-Amino-5-(5-methoxypyridin-3-yl)-5-methyl-2-(1-(methyl-d3)-6-(3,3,4,4,4-pentafluorobutyl)-1H-pyrazolo[3,4-d]pyrimidin-4-yl)-5,7-dihydro-6H-pyrrolo[2,3-d]pyrimidin-6-one]"
100%,475 nM,"Cn1cc(C2(C3CC3)C(=O)Nc3nc(-c4nc(CCC(F)(F)C(F)(F)F)nc5c4cnn5C)nc(N)c32)cn1 (stereo not shown) [Example 15, 4-Amino-5-cyclopropyl-5-(1-methyl-1H-pyrazol-4-yl)-2-(1-methyl-6-(3,3,4,4,4-pentafluorobutyl)-1H-pyrazolo[3,4-d]pyrimidin-4-yl)-5,7-dihydro-6H-pyrrolo[2,3-d]pyrimidin-6-one]"
88%,435 nM,"Cn1cc(C2(C)C(=O)Nc3nc(-c4nc(CCC(F)(F)C(F)(F)F)nc5c4cnn5C)nc(N)c32)cn1 (stereo not shown) [Example 23, 4-Amino-5-methyl-5-(1-methyl-1H-pyrazol-4-yl)-2-(1-methyl-6-(3,3,4,4,4-pentafluorobutyl)-1H-pyrazolo[3,4-d]pyrimidin-4-yl)-5,7-dihydro-6H-pyrrolo[2,3-d]pyrimidin-6-one]"
121%,230 nM,"Cn1ncc2c(-c3nc(N)c4c(n3)NC(=O)C4(C)c3ccc(F)cn3)nc(CCC3CC(F)(F)C3)nc21 (stereo not shown) [Example 29, 4-Amino-2-(6-(2-(3,3-difluorocyclobutyl)ethyl)-1-methyl-1H-pyrazolo[3,4-d]pyrimidin-4-yl)-5-(5-fluoropyridin-2-yl)-5-methyl-5,7-dihydro-6H-pyrrolo[2,3-d]pyrimidin-6-one]"
132%,103 nM,"Cc1nc(C2(C)C(=O)Nc3nc(-c4nc(CCC(F)(F)C(F)(F)F)nc5c4cnn5C)nc(N)c32)no1 (stereo not shown) [Example 20, 4-Amino-5-methyl-5-(5-methyl-1,2,4-oxadiazol-3-yl)-2-(1-methyl-6-(3,3,4,4,4-pentafluorobutyl)-1H-pyrazolo[3,4-d]pyrimidin-4-yl)-5,7-dihydro-6H-pyrrolo[2,3-d]pyrimidin-6-one]"
89%,29 nM,"[2H]C([2H])([2H])n1ncc2c(-c3nc(N)c4c(n3)NC(=O)C4(C)c3ccc4cccnc4c3)nc(CCC(F)(F)C(F)(F)F)nc21 (stereo not shown) [Example 13, 4-Amino-5-methyl-2-(1-(methyl-d3)-6-(3,3,4,4,4-pentafluorobutyl)-1H-pyrazolo[3,4-d]pyrimidin-4-yl)-5-(quinolin-7-yl)-5,7-dihydro-6H-pyrrolo[2,3-d]pyrimidin-6-one]"
